The source of these data is patent US20180098970A1, “USE OF […] THE TREATMENT OF NEURO[…]” (Afecta Pharmaceuticals, Inc., priority 2008, published 2018).

One may read the Ki as a dissociation constant, usually derived from enzyme kinetics or from competition with a known ligand.

SMILES strings stand for the structures. Read-outs that look alike come from different tables or passages of the source.

One assay addresses T1, hSERT (Homo sapiens, UniProt P31645).
T1 construct: expressed in transfected cells; host or cells: HEK-293 (HEK-hSERT), membranes
Put plainly: competition binding assay, recombinant human SERT in HEK-293 cell membranes. The source says: (§1) These transporters control the amount of the three monoamines in the TMMS and therefore regulate fast excitatory and inhibitory neurotransmission in the CNS. Thus, the relative amounts of all three of these monoamines in the TMMS of brain controls mammalian neurobehaviors. To determine the Ki of the representative compounds; recombinant human monoamine transporters (DAT, SERT and NET) were expressed in HEK-293 cells as described in Eshleman et al. (1999). The HEK-hDAT, HEK-hSERT and HEK-hNET cells were incubated in modified Eagle's medium or Dulbecco's modified Eagle's medium exactly as described by Eshleman et al. Cells were grown until confluent on 150 mm diameter tissue culture dishes in a humidified 10% CO2 environment at 37° C. […] Paroxetine (SERT), [125sup I] RTI-55 binding (DAT) and (NET). The binding assays contained an aliquot of membranes prepared from the HEK cell lines expressing the recombinant human transporters (≈12-30 μg protein, depending on the cell line, adjusted to bind <10% of the total radioactivity added to the assay), [125supI] RTI-55 (0.2 nM final concentration) or [3supH] Paroxetine (0.4 nM final concentration) along with Krebs-HEPES assay buffer to yield a final volume of 250 μL. Specific binding was defined as the difference in binding observed in the presence and absence of 10 μM nomifensine (HEK-hDAT), 10 uM desipramine HEK-NET) or 10 μM imipramine (HEK-hSERT). The reaction was incubated for 90 min at room temperature in the dark and was terminated by vacuum filtration. Competition experiments were conducted with duplicate determinations.

A further assay concerns the target T2, hNET (Homo sapiens, UniProt P23975).
T2 construct: expressed in transfected cells; host or cells: HEK-293 (HEK-hNET), membranes
Nature of the assay: competition binding assay, recombinant human NET in HEK-293 cell membranes.
Source text: as §1

The next assay addresses T3, hDAT (Homo sapiens, UniProt Q01959).
T3 construct: expressed in transfected cells; host or cells: HEK-293 (HEK-hDAT), membranes
Put plainly: competition binding assay, recombinant human DAT in HEK-293 cell membranes. The note with it: [125I]RTI-55 0.2 nM, ± mean standard error, 3 trials, read-out: Inhibition of binding at human monoamine transporters (Ki) hDAT.
Source text: as §1

For the next assay, the system named is symptoms of ADHD. Put plainly: clinical case study, ADHD (Example 3). It is filed as in vivo, human. From the text: patient two is a person. […], they were also being treated with risperidone which continued for 2 years. […] Subsequently, the risperidone was then completely discontinued without any recurrence of symptoms of ADHD (i.e. poor attention span, hyperactivity, or inappropriate behavior).

For a further assay, the system named is Tourette syndrome. Put plainly: clinical case study, Tourette syndrome with ADHD (Example 4). The assay is classed as in vivo, human. The note with it: patient, Mazindol 7.5 mg per day started. The method, then: patient one is a person. They began to have constant vocal tics. Motor tics started […], consisting of licking their lips, rolling their eyes, hand and foot tics. They were diagnosed as having Tourette syndrome. […], the major problems were with their tics, outbursts and lack of control. Despite treatment with methylphenidate 20 mg twice a day (bid), haloperidol 0.5 mg and paroxetine 10 mg, they were in special school and was suffering from uncountable motor and vocal tics everyday during waking hours and with outbursts of shouting, coprolalia and episodes of self-mutilation. coprolabia, lying, hitting things and people, and extremely oppositional.

In the next assay the test system is chronic fatigue syndrome. Put plainly: clinical case study, chronic fatigue syndrome (Example 5). The assay is classed as in vivo, human. The note with it: person, Mazindol 5.0 mg per day, after 10 days of therapy. The source says: P. C. a person had suffered from chronic fatigue syndrome, “chemical sensitivity and for one year with marked fatigue each day beginning in the early or mid afternoon. There has been some accompanying muscle aching, but no symptoms of central neurosystem involvement. Their functioning at work and at home had been seriously impaired. EBV titers were positive.

Assay [1] has as its system reward deficiency disorder. Nature of the assay: clinical case study, reward deficiency disorder (Example 6). The assay is classed as in vivo, human. The note with it: person, Mazindol 2 mg BID, over several weeks. From the text: W. K. a person had suffered from alcohol abuse, sexual addiction and pathologic gambling for 10 years. They had been in counseling, Alcoholic Anonymous, Gamblers Anonymous on and off over the past 10 years with minimal effects. They had lost their marriage and several jobs as result of their behavioral problems. They had been treated with antidepressants, but they had been of little help. […] In addition, they reported that the thrill they have always gotten from gambling was no long present and they no longer felt compulsion to gamble.

The next assay relates to dementia. Put plainly: clinical case study, dementia with motor impairment (Example 7). The assay is classed as in vivo, human. The note with it: person, Mazindol 8 mg per day, after 2 weeks of treatment. From the text: R 0 is a person had suffered from motor impairment and cognitive decline. They developed frank dementia and required institutionalization and nursing care. […] Based on reports by their care givers their became more aware of surrounding and was able to recognize family member for the first time in one year and was not “hearing and seeing things that were not there”.

For assay [2], the system named is obsessive compulsive behavior. Put plainly: clinical case study, obsessive compulsive behavior (Example 8). The assay is classed as in vivo, human. To be noted: person, Mazindol 5 mg per day. The source says:
patient five is a person who developed compulsive behaviors after the birth of their first child. […] They washed all food even if it had been pre-packaged and placed in specific foods in specific locations in their pantry and refrigerator which they were sure were the “safest: They wore gloves when they left the house and made […] children do so as well. They sprayed disinfectant on everything […] or […] children came in contact with and refused in eat in restaurants. Prior to their pregnancy they had been diagnosed with polycystic ovary disease and need treatment in order to conceive. They were told that they were also “borderline diabetic”. […] Shortly, after beginning their therapy they reported that “mood was better” and they didn't “feel anxious” about bacteria anymore. After three weeks of therapy with Mazindol they stopped wearing gloves (and forcing […] children to do so) and using disinfectant. Their spouse reported that they were a “new […]” and they were no allowed to put the groceries away without having to place it in particular places.

Where [3] appears, read: [3H]Paroxetine 0.4 nM, HEK-hSERT membranes, ± mean standard error, 3 trials, read-out: Inhibition of binding at human monoamine transporters (Ki) hSERT.
The mark [4] stands for this setting: [125I]RTI-55 0.2 nM, HEK-hNET membranes, ± mean standard error, 3 trials, read-out: Inhibition of binding at human monoamine transporters (Ki) hNET.

T2 sequence (P23975 whole entry): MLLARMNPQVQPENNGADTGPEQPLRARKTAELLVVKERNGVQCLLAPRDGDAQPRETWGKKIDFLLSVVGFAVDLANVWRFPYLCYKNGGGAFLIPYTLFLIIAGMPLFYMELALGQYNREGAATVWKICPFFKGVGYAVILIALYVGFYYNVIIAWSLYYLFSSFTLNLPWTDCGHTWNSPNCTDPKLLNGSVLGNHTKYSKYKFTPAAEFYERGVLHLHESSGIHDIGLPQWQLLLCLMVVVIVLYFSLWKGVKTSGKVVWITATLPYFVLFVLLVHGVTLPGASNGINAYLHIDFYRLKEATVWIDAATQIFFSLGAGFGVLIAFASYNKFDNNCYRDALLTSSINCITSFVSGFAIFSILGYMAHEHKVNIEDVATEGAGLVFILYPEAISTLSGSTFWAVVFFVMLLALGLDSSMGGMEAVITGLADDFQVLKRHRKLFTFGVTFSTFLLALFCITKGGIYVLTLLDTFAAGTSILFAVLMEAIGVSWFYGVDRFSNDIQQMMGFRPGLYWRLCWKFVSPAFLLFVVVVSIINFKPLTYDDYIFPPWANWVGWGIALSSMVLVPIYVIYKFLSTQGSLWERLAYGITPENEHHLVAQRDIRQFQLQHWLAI
T1 sequence (P31645 whole entry): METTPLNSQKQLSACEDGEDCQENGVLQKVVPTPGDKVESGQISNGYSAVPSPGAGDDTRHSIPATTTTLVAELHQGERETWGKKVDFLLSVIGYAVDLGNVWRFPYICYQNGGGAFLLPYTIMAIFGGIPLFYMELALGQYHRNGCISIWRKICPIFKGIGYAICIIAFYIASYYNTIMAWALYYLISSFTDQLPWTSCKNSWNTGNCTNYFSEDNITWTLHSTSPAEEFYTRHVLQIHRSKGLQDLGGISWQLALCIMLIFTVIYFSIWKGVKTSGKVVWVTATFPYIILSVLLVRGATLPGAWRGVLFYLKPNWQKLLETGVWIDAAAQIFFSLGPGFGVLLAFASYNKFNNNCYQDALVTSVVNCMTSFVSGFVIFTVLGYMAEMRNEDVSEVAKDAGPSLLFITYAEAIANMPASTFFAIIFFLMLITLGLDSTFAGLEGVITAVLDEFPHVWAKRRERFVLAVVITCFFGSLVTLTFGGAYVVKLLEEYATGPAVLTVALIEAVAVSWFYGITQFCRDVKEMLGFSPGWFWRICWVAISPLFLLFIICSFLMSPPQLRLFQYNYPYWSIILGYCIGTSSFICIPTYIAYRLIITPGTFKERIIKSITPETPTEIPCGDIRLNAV
T3 sequence (Q01959 whole entry): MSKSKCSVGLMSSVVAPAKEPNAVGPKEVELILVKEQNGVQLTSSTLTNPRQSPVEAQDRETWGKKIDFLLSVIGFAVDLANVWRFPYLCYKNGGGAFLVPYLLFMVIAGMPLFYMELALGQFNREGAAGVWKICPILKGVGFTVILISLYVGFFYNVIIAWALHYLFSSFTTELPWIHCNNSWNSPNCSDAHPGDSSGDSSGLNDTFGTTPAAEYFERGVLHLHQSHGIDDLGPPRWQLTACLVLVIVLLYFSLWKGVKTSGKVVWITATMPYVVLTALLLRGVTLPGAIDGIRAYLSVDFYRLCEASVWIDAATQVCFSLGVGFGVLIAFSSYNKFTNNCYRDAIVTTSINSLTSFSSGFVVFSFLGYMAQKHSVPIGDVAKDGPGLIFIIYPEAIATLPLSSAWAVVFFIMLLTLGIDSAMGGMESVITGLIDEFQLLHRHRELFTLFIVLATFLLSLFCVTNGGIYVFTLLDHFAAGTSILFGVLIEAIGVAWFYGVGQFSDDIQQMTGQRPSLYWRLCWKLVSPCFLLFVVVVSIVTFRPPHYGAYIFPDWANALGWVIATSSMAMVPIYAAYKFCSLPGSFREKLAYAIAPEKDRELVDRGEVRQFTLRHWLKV

In the case of `OC1(c2ccc(Cl)c(Cl)c2)c2ccccc2C2=NCCN21` (stereo not drawn) [Cpd 1, 5-(3,4-dichlorophenyl)-2,5-dihydro-5H-imidazo(2,1-a)isoindol-5-ol], the Ki stood at 101 ± 7.9 nM at hSERT (setting [3]), 363 ± 41 nM on hNET (setting [4]) and 25 ± 4.8 nM on hDAT.
The like results for `Clc1ccc(C2c3ccccc3C3=NCCN32)cc1` (stereo not drawn) [Cpd 2, 5-(4-Chlorophenyl)-2,5-dihydro-5H-imidazo(2,1-a)is oindole] were, in that order, 14 ± 5 nM, 56 ± 19 nM and 45 ± 11 nM.
Taken in the same sequence, the figures for `Clc1ccc(C2c3ccccc3C3=NCCN32)cc1` (stereo not drawn) [Cpd 3, 5-(4-Chlorophenyl)-2,3-dihydro-5H-imidazo (2,1-a)is oindole] were 312 ± 45 nM, 89 ± 18 nM and 111 ± 7.3 nM.
In the case of `OC1(c2ccc(Cl)cc2)c2ccccc2C2=NCCN21` (stereo not drawn) [mazindol, 5-(4-Chlorophenyl)-2,5-dihydro-5H-imidazo(2,1-a)is oindol-5-ol], the Ki at hSERT was found to be 56 ± 9 nM; at hNET it was 24 ± 2 nM. Further, the “recurrence of ADHD symptoms on maintenance” value in the assay on symptoms of ADHD (Mazindol 2.5 mg/day as sole agent, over the next 3 years) is given as “without the return of any symptoms of ADHD”. Also, in the assay with symptoms of ADHD (patient, Mazindol 2.5 mg BID started, within 2 months), the “clinical response of ADHD symptoms” value is reported as “improved attention span, loss of hyperactivity”. Also, the “clinical response of tics, outbursts and related symptoms” value in the assay with Tourette syndrome is “significant improvement in these symptoms”. Besides, in the assay with chronic fatigue syndrome, the “clinical response of fatigue and muscle ache” value is “complete relief of their fatigue and muscle ache symptoms”. In addition, the “clinical response of drinking and gambling behavior” value in [1] is “able to completely stop drinking after 5 weeks”. Moreover, the “clinical response of motor function and dementia” value in the assay with dementia was “improvement of their motor function, and their dementia”. Moreover, the “clinical response of obsessive compulsive behavior” value in assay [2] is recorded as “relief of their obsessive compulsive behavior”.
